From US20220041647A1, “ESTRA-1,3,5(10)-TRIENE COMPOUNDS CONDENSED IN POSITION 16(17) WITH A PYRAZOLE RING AS INHIBITORS OF 17-HSD1” (FORENDO PHARMA LTD, priority 2018, published 2022)

What was measured:
[1] = biological target: T1, recombinant human 17β-HSD2 (Homo sapiens, UniProt P37059); assay: Inhibition of recombinant human 17β-HSD2 (estradiol to estrone conversion, HPLC/radioactivity); assay type: biochemical; details: compound 1 μM; 50 nM estradiol, 1 mM NADH, 30 min RT
T1 construct: made in house; host or cells: Sd9 (Sf9) insect cells, baculovirus (Bac to Bac Expression System)
T1 sequence (P37059 1-387): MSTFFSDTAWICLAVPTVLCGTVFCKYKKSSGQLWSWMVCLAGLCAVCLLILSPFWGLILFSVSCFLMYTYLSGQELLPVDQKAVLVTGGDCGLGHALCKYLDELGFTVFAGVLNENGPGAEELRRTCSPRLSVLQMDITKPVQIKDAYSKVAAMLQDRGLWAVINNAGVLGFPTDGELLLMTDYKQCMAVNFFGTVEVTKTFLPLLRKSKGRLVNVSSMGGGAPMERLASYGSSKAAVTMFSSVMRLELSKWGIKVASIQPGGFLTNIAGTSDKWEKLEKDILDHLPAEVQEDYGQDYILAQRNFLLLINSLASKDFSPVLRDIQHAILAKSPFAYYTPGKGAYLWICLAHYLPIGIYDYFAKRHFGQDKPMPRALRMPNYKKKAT
Summary of the method: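 Membrane extract of Sf9 cells expressing recombinant human 17β-HSD2 (4 μg/ml), in 20 mM KH2PO4 pH 8.5 with 50 nM ^3H-spiked estradiol and 1 mM NADH, 30 min at RT, 1% DMSO. Compound at 1 μM or 0.1 μM; estrone formation by HPLC radioactivity, % inhibition relative to uninhibited conversion.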

[2] = Metabolic stability assay, human hepatocyte incubations; assay type: in vitro ADME; details: compound 1 μM, human hepatocytes, 0-60 min at 37° C.; read-out: Human hepatocytes MetStab T½ min
Description: Compound stock solutions of the invention were prepared in […]. Final concentration of DMSO was adjusted to 1% in all samples. The in vitro metabolic stability of the compounds of the invention was determined for exemplified compounds using human hepatocyte incubations; study compounds at concentration of 1 μM were incubated 0, 10, 20, 40 and 60 min at 37° C. Samples were collected at all time points and compounds were detected by LC-MS/MS analysis. The percent compound remaining is calculated by comparing the peak area of the parent compound at each time point to time zero. In vitro metabolic stability was determined as half life (T1/2), which was determined by regression analysis of the percent parent disappearance vs. time curve.

[3] = biological target: T2, recombinant human 17β-HSD1 (Homo sapiens, UniProt P14061); assay: Inhibition of recombinant human 17β-HSD1 (estrone to estradiol conversion, HPLC/radioactivity); assay type: biochemical; details: compound 100 nM; 30 nM estrone, 1 mM NADPH, 30 min RT
T2 construct: made in house; host or cells: Sd9 (Sf9) insect cells, baculovirus (Bac to Bac Expression System)
T2 sequence (P14061 1-328): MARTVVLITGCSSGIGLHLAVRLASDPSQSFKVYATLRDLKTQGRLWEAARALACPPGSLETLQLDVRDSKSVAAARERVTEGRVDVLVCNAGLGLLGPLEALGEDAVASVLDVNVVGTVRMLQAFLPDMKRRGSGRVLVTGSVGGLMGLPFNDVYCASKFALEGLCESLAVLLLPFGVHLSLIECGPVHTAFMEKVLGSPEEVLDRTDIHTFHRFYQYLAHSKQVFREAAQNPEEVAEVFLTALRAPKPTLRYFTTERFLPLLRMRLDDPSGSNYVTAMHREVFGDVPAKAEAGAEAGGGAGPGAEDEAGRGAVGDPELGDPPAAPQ
Summary of the method: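 Microsomal human 17β-HSD1 from Sf9 baculovirus (1 μg/ml) was incubated 30 min at RT in 20 mM KH2PO4 pH 7.4 with 30 nM ^3H-estrone, 1 mM NADPH and inhibitor at 1 μM or 0.1 μM (1% DMSO). Estrone and estradiol were separated by HPLC with radioactivity detection. % inhibition = 100 − % conversion relative to uninhibited control.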

SMILES: CN(CC(C)(C)O)C(=O)CC[C@@H]1c2c[nH]nc2[C@@]2(C)CCC3c4cccc(F)c4CCC3C12 (stereo partly drawn) [Compound 243, 3-((8aS,12S)-3-fluoro-8a-methyl-1,2,6b,7,8,8a,10,12,12a,12b-decahydronaphtho[2′,1′:4,5]indeno[1,2-c]pyrazol-12-yl)-N-(2-hydroxy-2-methylpropyl)-N-methylpropanamide]
- inhibition at 1 µM [1]: 5%
- half-life at 1 μM [2]: 15 min
- inhibition at 0.1 µM [3]: 80%
